Key:
Type in all cases: in vivo
Helicoverpa armigera = Helicoverpa armigera diet incorporation method; conditions: third instar larvae, dead and moribund combined, 96 h after release
How it was run: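 500 ppm stock of compound milled with surfactant and zirconia beads to average particle size below 2 μm, dispersed in DM water, diluted as needed, and mixed into semi-synthetic diet at about 50° C. Single starved third-instar larvae per cell, held at 25° C., 70% RH; dead plus moribund larvae scored as percent mortality at 96 h.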

Spodoptera litura = Spodoptera litura diet incorporation method; conditions: third instar larvae, dead and moribund combined, 96 h after release
How it was run: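 Compound milled to <2 μm average particle size in surfactant, dispersed in water (500 ppm stock dispersion), then mixed into semi-synthetic diet at ~50° C. One starved third-instar larva per diet cell, 25° C, 70% RH; percent mortality (dead plus moribund) scored at 96 h.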

Plutella xylostella = experiment: whole plant or invertebrate; conditions: foliar, cabbage leaf dip, second instar larvae, dead and moribund combined, 72 h after release
How it was run: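 Compounds milled with zirconia beads into surfactant dispersion (500 ppm stock), diluted in 0.01% Triton-X. Cabbage leaves dipped 10 s, shade-dried 20 min; one second-instar larva per cell, 25 °C, 70% RH. Mortality (dead plus moribund) scored at 72 h.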

Measured: mortality at 300 ppm

O=C(Nc1c(Br)cc2ccnn2c1C(=O)NCC1CC1)c1cc(Br)nn1-c1ncccc1Cl [Compound 54, 5-bromo-6-(3-bromo-1-(3-chloropyridin-2-yl)-1H-pyrazole-5-carboxamido)-N-(cyclopropylmethyl)pyrazolo[1,5-a]pyridine-7-carboxamide]
> 70%: all assays above

CSCCNC(=O)c1c(NC(=O)c2cc(Br)nn2-c2ncccc2Cl)c(Br)cc2ccnn12 [Compound 55, 5-bromo-6-(3-bromo-1-(3-chloropyridin-2-yl)-1H-pyrazole-5-carboxamido)-N-(2-(methylthio)ethyl)pyrazolo[1,5-a]pyridine-7-carboxamide]
> 70%: all assays above

C=CCNC(=O)c1c(NC(=O)c2cc(Br)nn2-c2ncccc2Cl)c(Br)cc2ccnn12 [Compound 56, N-allyl-5-bromo-6-(3-bromo-1-(3-chloropyridin-2-yl)-1H-pyrazole-5-carboxamido)pyrazolo[1,5-a]pyridine-7-carboxamide]
> 70%: all assays above

C#CCNC(=O)c1c(NC(=O)c2cc(Br)nn2-c2ncccc2Cl)c(Br)cc2ccnn12 [Compound 57, 5-bromo-6-(3-bromo-1-(3-chloropyridin-2-yl)-1H-pyrazole-5-carboxamido)-N-(prop-2-yn-1-yl)pyrazolo[1,5-a]pyridine-7-carboxamide]
> 70%: all assays above

Cc1cc2ccnn2c(C(=O)NC(C)(C)C)c1NC(=O)c1cc(C(F)(F)F)nn1-c1ncccc1Cl [Compound 58, N-(tert-butyl)-6-(1-(3-chloropyridin-2-yl)-3-(trifluoromethyl)-1H-pyrazole-5-carboxamido)-5-methylpyrazolo[1,5-a]pyridine-7-carboxamide]
> 70%: all assays above

CCNC(=O)c1c(NC(=O)c2cc(C(F)(F)F)nn2-c2ncccc2Cl)c(C)cc2ccnn12 [Compound 59, 6-(1-(3-chloropyridin-2-yl)-3-(trifluoromethyl)-1H-pyrazole-5-carboxamido)-N-ethyl-5-methylpyrazolo[1,5-a]pyridine-7-carboxamide]
> 70%: all assays above

Cc1cc2ccnn2c(C(=O)NC(C)C)c1NC(=O)c1cc(C(F)(F)F)nn1-c1ncccc1Cl [Compound 60, 6-(1-(3-chloropyridin-2-yl)-3-(trifluoromethyl)-1H-pyrazole-5-carboxamido)-N-isopropyl-5-methylpyrazolo[1,5-a]pyridine-7-carboxamide]
> 70%: all assays above

Cc1cc2ccnn2c(C(=O)NC2CC2)c1NC(=O)c1cc(C(F)(F)F)nn1-c1ncccc1Cl [Compound 61, 6-(1-(3-chloropyridin-2-yl)-3-(trifluoromethyl)-1H-pyrazole-5-carboxamido)-N-cyclopropyl-5-methylpyrazolo[1,5-a]pyridine-7-carboxamide]
> 70%: all assays above

Cc1cc2ccnn2c(C(=O)NCC2CC2)c1NC(=O)c1cc(C(F)(F)F)nn1-c1ncccc1Cl [Compound 62, 6-(1-(3-chloropyridin-2-yl)-3-(trifluoromethyl)-1H-pyrazole-5-carboxamido)-N-(cyclopropylmethyl)-5-methylpyrazolo[1,5-a]pyridine-7-carboxamide]
> 70%: all assays above

CNC(=O)c1c(NC(=O)c2cc(C(F)(F)F)nn2-c2ncccc2Cl)c(C)cc2ccnn12 [Compound 63, 6-(1-(3-chloropyridin-2-yl)-3-(trifluoromethyl)-1H-pyrazole-5-carboxamido)-N,5-dimethylpyrazolo[1,5-a]pyridine-7-carboxamide]
> 70%: all assays above

Cc1cc2ccnn2c(C(=O)NCC2CC2)c1NC(=O)c1cc(N2CC(F)(F)C2)nn1-c1ncccc1Cl [Compound 67, 6-(1-(3-chloropyridin-2-yl)-3-(3,3-difluoroazetidin-1-yl)-1H-pyrazole-5-carboxamido)-N-(cyclopropylmethyl)-5-methylpyrazolo[1,5-a]pyridine-7-carboxamide]
> 70%: all assays above

CNC(=O)c1c(NC(=O)c2cc(N3CC(F)(F)C3)nn2-c2ncccc2Cl)c(C)cc2ccnn12 [Compound 68, 6-(1-(3-chloropyridin-2-yl)-3-(3,3-difluoroazetidin-1-yl)-1H-pyrazole-5-carboxamido)-N,5-dimethylpyrazolo[1,5-a]pyridine-7-carboxamide]
> 70%: all assays above

Cc1cc2ccnn2c(C(=O)NC(C)C)c1NC(=O)c1cc(Oc2cc(C(F)(F)F)nn2C)nn1-c1ncccc1Cl [Compound 71, 6-(1-(3-chloropyridin-2-yl)-3-((1-methyl-3-(trifluoromethyl)-1H-pyrazol-5-yl)oxy)-1H-pyrazole-5-carboxamido)-N-isopropyl-5-methylpyrazolo[1,5-a]pyridine-7-carboxamide]
> 70%: all assays above

Cc1cc2ccnn2c(C(=O)NCC2CC2)c1NC(=O)c1cc(OC2CSC2)nn1-c1ncccc1Cl [Compound 72, 6-(1-(3-chloropyridin-2-yl)-3-(thietan-3-yloxy)-1H-pyrazole-5-carboxamido)-N-(cyclopropylmethyl)-5-methylpyrazolo[1,5-a]pyridine-7-carboxamide]
> 70%: all assays above

CCNC(=O)c1c(NC(=O)c2cc(Br)nn2-c2ncccc2Cl)c(Br)cc2ccnn12 [Compound 76, 5-bromo-6-(3-bromo-1-(3-chloropyridin-2-yl)-1H-pyrazole-5-carboxamido)-N-ethylpyrazolo[1,5-a]pyridine-7-carboxamide]
> 70%: all assays above

CONC(=O)c1c(NC(=O)c2cc(Br)nn2-c2ncccc2Cl)c(Br)cc2ccnn12 [Compound 87, 5-bromo-6-(3-bromo-1-(3-chloropyridin-2-yl)-1H-pyrazole-5-carboxamido)-N-methoxypyrazolo[1,5-a]pyridine-7-carboxamide]
> 70%: all assays above

CC(C)NC(=O)c1c(NC(=O)c2cc(Br)nn2-c2ncccc2Cl)c(Br)cc2ccnn12 [Compound 91, 5-bromo-6-(3-bromo-1-(3-chloropyridin-2-yl)-1H-pyrazole-5-carboxamido)-N-isopropylpyrazolo[1,5-a]pyridine-7-carboxamide]
> 70%: all assays above

CONC(=O)c1c(NC(=O)c2cc(C(F)(F)F)nn2-c2ncccc2Cl)c(C)cc2ccnn12 [Compound 93, 6-(1-(3-chloropyridin-2-yl)-3-(trifluoromethyl)-1H-pyrazole-5-carboxamido)-N-methoxy-5-methylpyrazolo[1,5-a]pyridine-7-carboxamide]
> 70%: all assays above

Cc1cc2ccnn2c(C(=O)NC(C)C2CC2)c1NC(=O)c1cc(Br)nn1-c1ncccc1Cl (stereo not drawn) [Compound 95, 6-(3-bromo-1-(3-chloropyridin-2-yl)-1H-pyrazole-5-carboxamido)-N-(1-cyclopropylethyl)-5-methylpyrazolo[1,5-a]pyridine-7-carboxamide]
> 70%: all assays above

Cc1cc2ccnn2c(C(=O)NCC(F)(F)F)c1NC(=O)c1cc(Br)nn1-c1ncccc1Cl [Compound 96, 6-(3-bromo-1-(3-chloropyridin-2-yl)-1H-pyrazole-5-carboxamido)-5-methyl-N-(2,2,2-trifluoroethyl)pyrazolo[1,5-a]pyridine-7-carboxamide]
> 70%: all assays above

COc1cc(C(=O)Nc2c(C)cc3ccnn3c2C(=O)NC(C)C2CC2)n(-c2ncccc2Cl)n1 (stereo not drawn) [Compound 99, 6-(1-(3-chloropyridin-2-yl)-3-methoxy-1H-pyrazole-5-carboxamido)-N-(1-cyclopropylethyl)-5-methylpyrazolo[1,5-a]pyridine-7-carboxamide]
> 70%: all assays above

C#CCNC(=O)c1c(NC(=O)c2cc(C(F)(F)F)nn2-c2ncccc2Cl)c(C)cc2ccnn12 [Compound 108, 6-(1-(3-chloropyridin-2-yl)-3-(trifluoromethyl)-1H-pyrazole-5-carboxamido)-5-methyl-N-(prop-2-yn-1-yl)pyrazolo[1,5-a]pyridine-7-carboxamide]
> 70%: all assays above

Cc1cc2ccnn2c(C(=O)NCC(F)(F)F)c1NC(=O)c1cc(C(F)(F)F)nn1-c1ncccc1Cl [Compound 109, 6-(1-(3-chloropyridin-2-yl)-3-(trifluoromethyl)-1H-pyrazole-5-carboxamido)-5-methyl-N-(2,2,2-trifluoroethyl)pyrazolo[1,5-a]pyridine-7-carboxamide]
> 70%: all assays above

— patent US12024510B2, “Pyrazolopyridine-diamides, their use as insecticide and processes for preparing the same” (PI INDUSTRIES LTD., priority 2017, dated 2024)
